Starred links: 1 amine or outer side, 2 acyl side, 3 side chain; linkers in the order of their positions; H or OH if unused. Non-standard residues stand in square brackets, D forms with d. Residues, ends and D or L forms follow the SMILES beside them. *: point of attachment. X1 = O=C(CCCC[C@@H]1SC[C@@H]2NC(=O)N[C@@H]21)NCCCOCCOCCOCCCN*; pT = C[C@@H](OP(=O)(O)O)[C@H](N)C(=O)O; Suc = O=C(CCC(=O)[*:2])[*:1]
What was measured:
Assay type in all cases: binding
14-3-3ζ = molecular target: T1, 14-3-3ζ (Homo sapiens, UniProt P63104); test: biochemical
T1 construct: Plasmids containing the cDNAs of the full-length 14-3-3 isoforms ε, γ, and ζ were received; made in house; host or cells: E. coli BL21(DE3)
T1 sequence (P63104 1-245): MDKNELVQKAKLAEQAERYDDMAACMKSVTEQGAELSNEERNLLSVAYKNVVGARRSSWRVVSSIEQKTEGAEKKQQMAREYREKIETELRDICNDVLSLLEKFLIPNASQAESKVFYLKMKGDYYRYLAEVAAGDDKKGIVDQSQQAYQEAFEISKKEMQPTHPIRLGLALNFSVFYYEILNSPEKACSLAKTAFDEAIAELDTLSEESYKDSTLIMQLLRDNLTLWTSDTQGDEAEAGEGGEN
Experimental: (§1) The seven full-length human 14-3-3 isoforms, produced as fusions to a maltose-binding protein (MBP), were analyzed for their interaction with four phospho-PBMs from E6 proteins of HPV types 16, 18, 33, and 35 belonging to subgroups 1 and 2 (as defined in Supplementary Fig. 1). For comparison, we also measured two non-viral phospho-PBMs originating from protein kinase RSK1[28]. We used a competitive fluorescence polarization (FP) assay that measures the displacement of a fluorescent tracer phosphopeptide (here, derived from the HSPB6 protein) bound beforehand to 14-3-3, by an increasing amount of the peptide of interest.
(§2) For affinity measurements, full-length human 14-3-3 constructs with an N-terminal MBP fusion were used. Plasmids containing the cDNAs of the full-length 14-3-3 isoforms ε, γ, and ζ were received from Prof. Lawrence Banks. cDNAs encoding other full-length 14-3-3 isoforms β, τ, η, and σ were obtained as codon-optimized for E. coli expression synthetic genes from IDT Technologies (Coralville, Iowa, USA). All 14-3-3 isoforms were fused via a three-alanine linker to the C terminus of a mutant MBP carrying the following amino acid substitutions facilitating crystallization: D83A, K84A, K240A, E360A, K363A, and D364A[62]. All resulting clones were verified by sequencing. The MBP-fused proteins were expressed in E. coli BL21(DE3) with IPTG induction. Proteins were affinity purified on an amylose column and were further purified by ion-exchange chromatography (HiTrap Q HP, GE Healthcare). Unfused 14-3-3 isoforms devoid of the flexible C-terminal tails (14-3-3βΔC, 14-3-3τΔC 14-3-3εΔC) were expressed using IPTG induction and purified by subtractive IMAC and SEC[40]. Protein concentrations were determined by UV spectroscopy. The samples were supplemented with glycerol and TCEP before aliquoting and freezing in liquid nitrogen.
(§3) Unless otherwise stated, all phosphopeptide-binding measurements were performed using full-length 14-3-3 proteins fused to the C terminus of MBP, favoring optimal solubility and a standardized parallel purification scheme.
(§4) FP was measured with a PHERAstar (BMG Labtech, Offenburg, Germany) microplate reader by using 485 ± 20 and 528 ± 20 nm band-pass filters (for excitation and emission, respectively). In direct FP measurements, a dilution series of the 14-3-3 protein was prepared in 96-well plates (96-well skirted PCR plate, 4ti-0740, 4titude, Wotton, UK) in a 20 mM HEPES pH 7.5 buffer containing 150 mM NaCl, 0.5 mM TCEP, 0.01% Tween 20, 50 nM fluorescently labeled fpB6 peptide, and 100 μM FSC, if indicated. The volume of the dilution series was 40 μl, which was later divided into three technical replicates of 10 μl upon transferring to 384-well micro-plates (low binding microplate, 384 well, E18063G5, Greiner Bio-One, Kremsmünster, Austria). In total, polarization of the probe was measured at eight different protein concentrations (whereas one contained no protein and corresponded to the free peptide). In competitive FP measurements, the same buffer was supplemented with the protein to achieve a complex formation of 60–80%, based on the direct titration. Then, this mixture was used for creating a dilution series of the unlabeled competitor (i.e., the studied peptides) and the measurement was carried out identically as in the direct experiment.
(§5) All FP experiments were done in triplicates. Analysis of FP experiments were carried out using ProFit, an in-house developed, Python-based fitting program. ProFit utilizes a Monte Carlo approach to take into account experimental variability. It generates hundreds of simulated datasets, based on the experimental data variance and fits direct and competitive measurements in pairs.

[1] = molecular target: seven human 14-3-3 isoforms; test: Affinities averaged or compared across the 14-3-3 family (ΔΔGav, KD ratios, affinity maps); details: for KD ratios, compared to LRRK2 pS910/pS935, 14-3-3β / KD ratios, compared to LRRK2 pS910/pS935, 14-3-3γ / KD ratios, compared to LRRK2 pS910/pS935, 14-3-3ε / KD ratios, compared to LRRK2 pS910/pS935, 14-3-3ζ / KD ratios, compared to LRRK2 pS910/pS935, 14-3-3η / KD ratios, compared to LRRK2 pS910/pS935, 14-3-3σ / KD ratios, compared to LRRK2 pS910/pS935, 14-3-3τ / KD ratios, compared to LRRK2 pS910/pS935, average: Figure 4 panel b; for KD ratios, compared to LRRK2 pS910/pS935, average: average over the isoforms; for KD ratios, compared to 14-3-3γ, 14-3-3β / KD ratios, compared to 14-3-3γ, 14-3-3γ / KD ratios, compared to 14-3-3γ, 14-3-3ε / KD ratios, compared to 14-3-3γ, 14-3-3ζ / KD ratios, compared to 14-3-3γ, 14-3-3η / KD ratios, compared to 14-3-3γ, 14-3-3σ / KD ratios, compared to 14-3-3γ, 14-3-3τ: Figure 4 panel c; for binding to 14-3-3 proteins: competitive FP, seven MBP-fused full-length 14-3-3 isoforms, result in words; for ΔΔGav (average 14-3-3 binding free energy difference) relative to p35E6: averaged over 14-3-3 isoforms, 295 K; for KD ratio relative to p35E6: corresponds to ΔΔGav averaged over 14-3-3 isoforms
Description: Former studies have measured the binding of the seven human 14-3-3 isoforms to unrelated phospho-motifs derived from Cystic Fibrosis Transmembrane Conductance Regulator (CFTR), Leucine-Rich Repeat Kinase 2 (LRRK2), Potassium channel subfamily K members (TASK1/3), C-Raf, the p65 subunit of the NF-κB transcription factor, and from Ubiquitin carboxyl-terminal hydrolase 8 (USP8), representing a wide variety of different 14-3-3-binding motifs, including C-terminal, internal, monovalent, or divalent motifs[40],[44]–[48].
(gray background). The color scale is either based on affinity values or on KD ratios. √ denotes affinities weaker than the limit of quantitation of the experimental assays. b Same map as in a, normalized to the strongest 14-3-3-binding motif. […] Source data are provided as a Source Data file.
All binding data and the obtained fits are provided as Supplementary Data File 1.

14-3-3ε = molecular target: T2, 14-3-3ε (Homo sapiens, UniProt P62258); test: biochemical
T2 construct: Plasmids containing the cDNAs of the full-length 14-3-3 isoforms ε, γ, and ζ were received; made in house; host or cells: E. coli BL21(DE3)
T2 sequence (P62258 1-255): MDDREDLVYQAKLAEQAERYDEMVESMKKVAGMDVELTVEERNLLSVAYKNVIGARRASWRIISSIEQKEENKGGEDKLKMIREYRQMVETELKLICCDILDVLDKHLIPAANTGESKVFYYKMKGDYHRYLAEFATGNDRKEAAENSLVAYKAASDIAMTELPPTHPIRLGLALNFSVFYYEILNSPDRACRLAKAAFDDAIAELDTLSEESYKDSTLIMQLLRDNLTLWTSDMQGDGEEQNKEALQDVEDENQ
Experimental: as §1, §2, §3, §4, §5

Row | SMILES | Kd (14-3-3ζ) [µM] | KD ratios, compared to LRRK2 pS910/pS935, 14-3-3β [1] | KD ratios, compared to LRRK2 pS910/pS935, 14-3-3γ [1] | KD ratios, compared to LRRK2 pS910/pS935, 14-3-3ε [1] | KD ratios, compared to LRRK2 pS910/pS935, 14-3-3ζ [1] | KD ratios, compared to LRRK2 pS910/pS935, 14-3-3η [1] | KD ratios, compared to LRRK2 pS910/pS935, 14-3-3σ [1] | KD ratios, compared to LRRK2 pS910/pS935, 14-3-3τ [1] | KD ratios, compared to LRRK2 pS910/pS935, average [1] | KD ratios, compared to 14-3-3γ, 14-3-3β [1] | KD ratios, compared to 14-3-3γ, 14-3-3γ [1] | KD ratios, compared to 14-3-3γ, 14-3-3ε [1] | KD ratios, compared to 14-3-3γ, 14-3-3ζ [1] | KD ratios, compared to 14-3-3γ, 14-3-3η [1] | KD ratios, compared to 14-3-3γ, 14-3-3σ [1] | KD ratios, compared to 14-3-3γ, 14-3-3τ [1] | binding to 14-3-3 proteins [1] | Kd (14-3-3ε) [µM] | ΔΔGav (average 14-3-3 binding free energy difference) relative to p35E6 [1] | KD ratio relative to p35E6 [1] [fold] | further results
1 | CC(C)C[C@H](NC(=O)[C@H](CCCNC(=N)N)NC(=O)CCC(=O)NCCCOCCOCCOCCCNC(=O)CCCC[C@@H]1SC[C@@H]2NC(=O)N[C@@H]21)C(=O)N[C@@H](CCC(N)=O)C(=O)N[C@@H](CCCNC(=N)N)C(=O)N[C@@H](CCCNC(=N)N)C(=O)N[C@@H](CCCNC(=N)N)C(=O)N[C@@H](CCC(=O)O)C(=O)N[C@H](C(=O)N[C@@H](CCC(N)=O)C(=O)N[C@H](C(=O)O)C(C)C)[C@@H](C)OP(=O)(O)O [pHPV18E6] | 22.4 ± 1.3 | 2000.00 | 3437.50 | 8145.16 | 4666.67 | 4916.67 | 2293.73 | 3978.95 | 4200.00 | 3.84 | 1.00 | 9.18 | 2.04 | 2.15 | 12.64 | 3.44 | detectably bound |  |  |  | 
2 | CC(C)C[C@H](NC(=O)[C@H](C)NC(=O)[C@@H](NC(=O)[C@H](CCC(=O)O)NC(=O)[C@H](CCCNC(=N)N)NC(=O)[C@H](CCCNC(=N)N)NC(=O)[C@H](CCCNC(=N)N)NC(=O)[C@H](CO)NC(=O)[C@H](CCCNC(=N)N)NC(=O)[C@H](CO)NC(=O)CCC(=O)NCCCOCCOCCOCCCNC(=O)CCCC[C@@H]1SC[C@@H]2NC(=O)N[C@@H]21)[C@@H](C)OP(=O)(O)O)C(=O)O [pHPV33E6] ({X1-Suc}-SRSRRRE[pT]AL-OH) |  | 191.94 | 293.75 | 830.65 | 566.67 | 412.50 | 111.72 | 370.53 | 400.00 | 4.31 | 1.00 | 10.96 | 2.89 | 2.11 | 7.20 | 3.74 | detectably bound | 10.3 | –10.9 ± 0.7 kJ/mol | ~100 | 
3 | CC(C)[C@H](NC(=O)[C@H](CCC(=O)O)NC(=O)[C@@H](NC(=O)[C@H](CCC(=O)O)NC(=O)[C@H](CCCNC(=N)N)NC(=O)[C@H](CCCNC(=N)N)NC(=O)[C@H](CCCNC(=N)N)NC(=O)[C@@H]1CCCN1C(=O)[C@H](CCCCN)NC(=O)[C@H](CO)NC(=O)CCC(=O)NCCCOCCOCCOCCCNC(=O)CCCC[C@@H]1SC[C@@H]2NC(=O)N[C@@H]21)[C@@H](C)OP(=O)(O)O)C(=O)O [pHPV35E6T-6R] ({X1-Suc}-SKPRRRE[pT]EV-OH) | 139 ± 21 | 8483 | 22250 |  | 28958 | 17708 |  | 20421 | 20000 | 2.51 | 1.00 |  | 1.95 | 1.19 |  | 2.72 |  |  | –1.1 ± 0.5 kJ/mol | 1.5 | 
4 | CC(C)[C@H](NC(=O)[C@H](CCC(=O)O)NC(=O)[C@@H](NC(=O)[C@H](CCC(=O)O)NC(=O)[C@H](CCCNC(=N)N)NC(=O)[C@H](CCCNC(=N)N)NC(=O)[C@@H](NC(=O)[C@@H]1CCCN1C(=O)[C@H](CCCCN)NC(=O)[C@H](CO)NC(=O)CCC(=O)NCCCOCCOCCOCCCNC(=O)CCCC[C@@H]1SC[C@@H]2NC(=O)N[C@@H]21)[C@@H](C)O)[C@@H](C)OP(=O)(O)O)C(=O)O [pHPV35E6] ({X1-Suc}-SKPTRRE[pT]EV-OH) |  |  |  |  |  |  |  |  |  |  |  |  |  |  |  |  | detectably bound | > 300 |  |  | Binding affinities (KD) of various 14-3-3-binding motifs, 14-3-3ε (14-3-3ε): √

Reference: article PMC7961048, “Hierarchized phosphotarget binding by the seven human 14-3-3 isoforms” (Nature Communications, 2021)
